# Reference: patent US20100015603A1, “Chimeric proteins for measuring atp concentrations in pericellular space and related screening method” (priority 2005, published 2010)
# Legend:
# Format in all cases: cell-based
# [1] = target: T1, rat P2X7R (Rattus norvegicus, UniProt Q64663); assay: ATP release through the P2X7 receptor in HEK293-rP2X7/pmeLUC cells, pmeLUC luminescence
# T1 construct: expressed in transfected cells; host or cells: HEK293 (HEK293-rP2X7/pmeLUC)
# T1 sequence (Q64663 1-595): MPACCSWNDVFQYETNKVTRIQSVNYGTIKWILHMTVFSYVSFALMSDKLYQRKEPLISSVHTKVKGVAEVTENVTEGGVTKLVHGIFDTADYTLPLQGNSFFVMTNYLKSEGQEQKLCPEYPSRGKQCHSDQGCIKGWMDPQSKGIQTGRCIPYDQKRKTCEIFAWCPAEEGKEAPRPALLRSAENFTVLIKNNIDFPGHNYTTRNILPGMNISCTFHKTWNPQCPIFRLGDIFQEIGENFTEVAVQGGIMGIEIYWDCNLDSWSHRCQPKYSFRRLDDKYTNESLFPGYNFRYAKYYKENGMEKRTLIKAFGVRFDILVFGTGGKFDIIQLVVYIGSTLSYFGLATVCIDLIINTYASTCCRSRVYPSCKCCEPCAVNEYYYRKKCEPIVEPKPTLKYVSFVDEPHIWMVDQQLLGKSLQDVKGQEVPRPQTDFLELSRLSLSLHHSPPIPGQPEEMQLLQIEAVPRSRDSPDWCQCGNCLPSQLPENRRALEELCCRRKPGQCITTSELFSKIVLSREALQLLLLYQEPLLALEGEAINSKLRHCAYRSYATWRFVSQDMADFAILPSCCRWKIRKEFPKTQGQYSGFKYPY
# Description: (§1) HEK293 cells were cultured in DMEM-F12 (Sigma-Aldrich). Media were supplemented with 10% heat-inactivated FBS, 100 U/ml penicillin and 100 μg/ml streptomycin (Invitrogen corporation, San Giuliano Milanese, Italy). ACN neuroblastoma cells were cultured in DMEM supplemented with MEM non-essential amino acid solution 100× (Sigma-Aldrich). HEK293 cells were transfected with the calcium phosphate method. Cells transiently expressing the pmeLUC construct were assayed 36 hours after transfection. Clones stably expressing pmeLUC or the P2X7R were generated by culture of the transfected cells in the presence of G418 (0.8 mg/ml, added 48 hours after transfection) for 3 weeks. Stable P2X7- or pmeLUC-expressing clones were kept in the continuous presence of 0.2 mg/ml of G418 sulphate (Geneticin) (Calbiochem, la Jolla, Calif.). ACN cells were transfected with pmeLUC by lipofectamine (Invitrogen) and tested 24 hours after transfection. Briefly, cells were incubated in 250 μl serum-free transfection medium (OPTIMEM) in the presence of lipofectamine-plus-DNA (0.4 μg per well). After 3 hours incubation 1 ml of DMEM plus 10% FBS supplemented with MEM non-essential amino acid solution 100× (Sigma-Aldrich) was added. Cells were assayed 24 hours after transfection. In order to allow a high level of plasma membrane expression of the transfected constructs, cells were incubated overnight in the presence of 1 mM DTT (Mezghrani et al, 2001). Furthermore, they were also kept at room temperature (21° C.) for two hours prior to transfer into the thermostated luminometer chamber.
# ATP was measured in the custom-made luminometer described by Rizzuto and co-workers (Brini et al., 1999; Jouaville et al., 1999). […] Light emission was detected by a Thorn EMI photon counting board installed in an IBM-compatible computer. […] Alternatively, ATP was measured in the supernatants using soluble luciferase in a Firezyme luminometer as previously described (Baricordi et al., 1999; Solini et al, 2004; Zanovello et al., 1990). […]
# [2] = target: T2, human P2X7R (Homo sapiens, UniProt Q99572); assay: ATP release through the P2X7 receptor in HEK293-hP2X7/pmeLUC cells, pmeLUC luminescence
# T2 construct: expressed in transfected cells; host or cells: HEK293 (HEK293-hP2X7/pmeLUC)
# T2 sequence (Q99572 1-595): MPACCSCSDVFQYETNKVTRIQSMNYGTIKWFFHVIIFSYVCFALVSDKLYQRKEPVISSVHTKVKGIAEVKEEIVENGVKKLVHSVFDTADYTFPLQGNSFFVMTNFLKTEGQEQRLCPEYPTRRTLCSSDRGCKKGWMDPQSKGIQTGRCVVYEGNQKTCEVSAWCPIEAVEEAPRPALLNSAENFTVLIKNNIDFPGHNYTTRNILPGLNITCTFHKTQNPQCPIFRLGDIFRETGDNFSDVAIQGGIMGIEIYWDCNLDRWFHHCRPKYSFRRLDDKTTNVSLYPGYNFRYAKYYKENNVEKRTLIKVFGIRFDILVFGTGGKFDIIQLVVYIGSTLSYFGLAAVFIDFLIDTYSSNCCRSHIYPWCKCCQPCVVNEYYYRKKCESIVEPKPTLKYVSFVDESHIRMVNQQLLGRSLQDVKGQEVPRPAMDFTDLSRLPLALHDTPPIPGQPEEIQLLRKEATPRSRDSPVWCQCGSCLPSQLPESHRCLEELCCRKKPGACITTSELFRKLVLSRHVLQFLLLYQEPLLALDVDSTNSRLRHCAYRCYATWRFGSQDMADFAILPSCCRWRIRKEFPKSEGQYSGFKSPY
# Description: as §1
# (§2) ATP was measured in the custom-made luminometer described by Rizzuto and co-workers (Brini et al., 1999; Jouaville et al., 1999). For experiments, cells were plated onto 13 mm coverslips and were placed in a 37° C. thermostatted chamber (diameter 15 mm, height 2 mm) and perfused with a saline solution supplemented with luciferin at a concentration of 5 μM. The chamber was held in a photomultiplier kept in a dark refrigerated (4° C.) box. Light emission was detected by a Thorn EMI photon counting board installed in an IBM-compatible computer. The board allowed storing of the data in the computer memory for further analysis. During the experiments the thermostatted chamber was continuously perfused with buffer by means of a Gilson peristaltic pump. Alternatively, ATP was measured in the supernatants using soluble luciferase in a Firezyme luminometer as previously described (Baricordi et al., 1999; Solini et al, 2004; Zanovello et al., 1990).
# Early experiments carried out not only by the authors of the present invention had shown that supernatants from cells expressing the P2X7 receptor contained a high level of ATP, which was not due to an accelerated rate of cell lysis (Baricordi et al., 1999; Adinolfi et al., 2003; Solini et al., 2004). […] To test such hypothesis several HEK293 clones were generated stably transfected with the human or rat P2X7R (HEK293-hP2X7 or HEK293-rP2X7, respectively). These clones were then transfected with pmeLUC (HEK293-P2X7/pmeLUC).
# [3] = target: T3, native P2X7R (Homo sapiens, UniProt Q99572); assay: ATP release from ACN neuroblastoma cells transfected with pmeLUC
# T3 construct: the human ACN neuroblastoma, a cell line expressing the native P2X7R; endogenous in cells; host or cells: ACN human neuroblastoma cells, transiently transfected with pmeLUC as sensor
# T3 sequence (Q99572 1-595): T2 sequence (Q99572 1-595)
# Description: HEK293 cells were cultured in DMEM-F12 (Sigma-Aldrich). Media were supplemented with 10% heat-inactivated FBS, 100 U/ml penicillin and 100 μg/ml streptomycin (Invitrogen corporation, San Giuliano Milanese, Italy). ACN neuroblastoma cells were cultured in DMEM supplemented with MEM non-essential amino acid solution 100× (Sigma-Aldrich). HEK293 cells were transfected with the calcium phosphate method. Cells transiently expressing the pmeLUC construct were assayed 36 hours after transfection. Clones stably expressing pmeLUC or the P2X7R were generated by culture of the transfected cells in the presence of G418 (0.8 mg/ml, added 48 hours after transfection) for 3 weeks. Stable P2X7- or pmeLUC-expressing clones were kept in the continuous presence of 0.2 mg/ml of G418 sulphate (Geneticin) (Calbiochem, la Jolla, Calif.). ACN cells were transfected with pmeLUC by lipofectamine (Invitrogen) and tested 24 hours after transfection. […]
# (§3) ATP was measured in the custom-made luminometer described by Rizzuto and co-workers (Brini et al., 1999; Jouaville et al., 1999). […] Light emission was detected by a Thorn EMI photon counting board installed in an IBM-compatible computer. […] Alternatively, ATP was measured in the supernatants using soluble luciferase in a Firezyme luminometer as previously described (Baricordi et al., 1999; Solini et al, 2004; Zanovello et al., 1990).
# Differences in basal levels of luminescence emission are neutralized by expressing luminescence as percentage increase over basal (FIG. 3B), however, the higher basal luminescence of HEK293-hP2X7/pmeLUC might reflect a real increased level of pericellular ATP compared to HEK293-pmeLUC, rather than a higher expression of pmeLUC. In this case, reporting luminescence as percent increase over basal would mask such a difference in the extracellular ATP concentration. To clarify this issue, total pmeLUC protein was measured by western blotting (FIG. 3C). […] To measure quantitatively surface pmeLUC expression, different clones were analyzed by FACS. […]
# [4] = tested on: HEK293-pmeLUC cells
# Description: as §1, §3
# [5] = tested on: HEK293-hP2X7 cells; assay: Extracellular ATP in supernatants of HEK293-hP2X7 cells, soluble luciferase; conditions: n=10, quiescent 220±34 nM
# Description: as §2
# (§4) As an independent proof that HEK293-P2X7 cells release a larger amount of ATP than mock-transfected HEK293 (HEK293-mock), extracellular ATP was measured in the supernatants using soluble luciferase. Quiescent HEK293-mock cells maintained an extracellular ATP concentration of 80±20 nM (n=12), compared to 220±34 nM (n=10) for HEK-hP2X7. […]
# [6] = tested on: HEK293-mock cells; assay: Extracellular ATP in supernatants of HEK293-mock cells, soluble luciferase
# Description: as §2, §4
# [7] = target: T4, pmeLUC (Photinus pyralis, UniProt P08659, N119G/N50D); assay: Response of HEK293-pmeLUC cells to extracellular nucleotides (affinity and selectivity of the pmeLUC probe, luminescence); conditions: for sensitivity of pmeLUC to other nucleotides: HEK293-pmeLUC cells, FIG. 2A
# T4 construct: expressed in transfected cells
# Description: as §2
# Affinity of pmeLUC for ATP is rather low, with a threshold of about 10 μM, however, subsequent ATP additions elicit further increases in light emission that allow building a calibration curve (FIG. 2B). Importantly, pmeLUC is insensitive to all other nucleotides tested (ADP, UTP, UDP and GTP) (FIG. 2A).
# T4 sequence (P08659 with tags, fused parts or gaps N50D/N119G): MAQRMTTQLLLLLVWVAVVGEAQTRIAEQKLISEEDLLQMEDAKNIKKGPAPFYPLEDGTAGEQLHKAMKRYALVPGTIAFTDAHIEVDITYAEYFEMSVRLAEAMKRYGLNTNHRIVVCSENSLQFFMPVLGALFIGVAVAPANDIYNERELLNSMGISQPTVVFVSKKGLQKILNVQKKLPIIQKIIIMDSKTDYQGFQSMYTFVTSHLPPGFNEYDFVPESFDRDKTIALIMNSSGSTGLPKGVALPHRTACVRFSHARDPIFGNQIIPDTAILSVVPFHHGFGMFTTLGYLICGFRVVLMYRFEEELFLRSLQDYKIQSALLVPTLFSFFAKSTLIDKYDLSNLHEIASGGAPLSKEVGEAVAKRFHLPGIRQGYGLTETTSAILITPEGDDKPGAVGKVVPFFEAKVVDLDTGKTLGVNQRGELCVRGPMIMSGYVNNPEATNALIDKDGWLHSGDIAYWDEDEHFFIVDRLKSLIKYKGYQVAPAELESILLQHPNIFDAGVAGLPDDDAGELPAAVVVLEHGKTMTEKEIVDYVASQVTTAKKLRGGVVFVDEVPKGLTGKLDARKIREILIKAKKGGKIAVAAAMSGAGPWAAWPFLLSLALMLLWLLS
compound,measurement,setting,value
"Nc1ncnc2c1ncn2[C@@H]1O[C@H](COP(=O)(O)OP(=O)(O)OP(=O)(O)O)[C@@H](OC(=O)c2ccc(C(=O)c3ccccc3)cc2)[C@H]1O [BzATP, Benzoyl ATP]",luminescence increase on addition of BzATP,[1]; HEK293-rP2X7/pmeLUC cells (not shown),large luminescence increase
same,luminescence increase on addition of BzATP,[2]; HEK293-hP2X7/pmeLUC cells,large luminescence increase
same,peak ATP concentration from calibration of BzATP triggered luminescence increase,[2]; HEK293-hP2X7/pmeLUC cells,about 250 μM
same,ATP release induced by BzATP,"[3]; ACN neuroblastoma cells, FIG. 3E",large ATP release
same,luminescence increase on addition of BzATP,[4]; HEK293-pmeLUC cells (no P2X7R),not
same,extracellular ATP level in supernatants after addition of BzATP,[5],about 400±55 nM
same,effect of BzATP on extracellular ATP in supernatants,[6],no effect
"Nc1ncnc2c1ncn2[C@@H](C=O)O[C@@H](C=O)COP(=O)(O)OP(=O)(O)OP(=O)(O)O [oATP, oxidized ATP]",effect on ATP-dependent luminescence increase (calibration curve; inhibition of luciferase itself),"[7]; calibration curve in presence and absence of oATP, not shown",not affected
same,ATP-induced luminescence increase in oATP-treated cells,"[1]; HEK293-rP2X7/pmeLUC, pre-treatment with oATP, FIG. 4A",matches exactly that of HEK293-pmeLUC
same,basal luminescence after oATP pretreatment,"[2]; HEK293-hP2X7/pmeLUC, n=8, untreated 12250±1500 cps",5800±1300 cps
same,ATP-induced luminescence increase in oATP-treated cells,"[2]; HEK293-hP2X7/pmeLUC, pre-treatment with oATP, FIG. 4B",matches exactly that of HEK293-pmeLUC
same,block of the BzATP-triggered luminescence increase,"[2]; pre-treatment with 300 μM oATP for 2 hours, HEK293-hP2X7/pmeLUC",fully blocked
same,block of BzATP-induced ATP release,"[3]; ACN cells, 300 μM oATP",fully blocked
same,basal luminescence total level after treatment with oATP,"[3]; ACN cells, n=5, before treatment 3500±350 cps",1500±260 cps
Nc1ncnc2c1ncn2[C@@H]1O[C@H](COP(=O)(O)OP(=O)(O)O)[C@@H](O)[C@H]1O [ADP],sensitivity of pmeLUC to other nucleotides,[7],insensitive
Nc1nc2c(ncn2[C@@H]2O[C@H](COP(=O)(O)OP(=O)(O)OP(=O)(O)O)[C@@H](O)[C@H]2O)c(=O)[nH]1 [GTP],sensitivity of pmeLUC to other nucleotides,[7],insensitive
C[N+](C)(C)CCOC(N)=O [carbachol],ATP release triggered by agonists of G protein-coupled receptors,"[4]; HEK293-pmeLUC cells, not shown",negligible ATP release
